We go through four compounds from US8367659B2, “Oxazinyl isoflavonoid compounds, medicaments and use” (Marshall Edwards, Inc., priority 2007, dated 2013).

Like-named read-outs stand apart in the source and are kept apart here.

Test [1] addresses T1, GAL4-PPARγ fusion protein (Homo sapiens, UniProt P37231).
T1 construct: host or cells: HEK293 (human embryonic kidney), stably transfected
Nature of the test: PPARγ activity in transfected HEK293 cells (beta-lactamase reporter). Type of test: cell-based. The settings on record: FIG. 13: 1 μM. On the procedure:
Human HEK293 cells, stably transfected with the PPARγ ligand binding domain fused with the DNA binding domain of the GAL4 protein (GAL4-PPARγ fusion protein), produce beta-lactamase when incubated with PPARγ ligands. Transfected human kidney embryonic cells (Invitrogen Inc., Carlsbad, Calif.) were seeded onto matrigel in 96-well plates and allowed to attach overnight. The following day, vehicle alone (DMSO) or test compound at 1, 5 and 10 μM was added at varying concentrations to cells and incubated for 16-18 hours. Cells were then loaded with a FRET-based fluorescent substrate to assess beta-lactamase activity. Cells were protected from light, and incubated at room temperature for 2 h. Plates were read on a fluorescence plate reader with an excitation wavelength of 409 nm and emission wavelengths of 460 nm and 530 nm. Results were expressed as a ratio of these two wavelengths after the background (cell-free control wells) had been subtracted. PPARγ activity was thus determined by measuring beta-lactamase activity as assessed by a fluorescent product to substrate ratio.

Test [2] has as its system TNFα synthesis in RAW 264.7 murine macrophages. Nature of the test: LPS-induced TNFα synthesis in RAW 264.7 murine macrophages. The test is classed as cell-based, mouse. The settings on record: 10 μM; relative to vehicle alone; FIG. 5. On the procedure: (§1) The mouse macrophage cell line RAW 264.7 was cultured in DMEM supplemented with foetal calf serum (FCS), […] glutamine and 50 U/ml penicillin/streptomycin. Cells were treated with either test compound (in 0.025% DMSO) or vehicle alone, and added one hour before 50 ng/ml LPS. After incubation for 24 h, culture media was collected for PGE2 or TXB2 measurement by ELISA (Cayman Chemical), and TNFα measurement using an ELISA (Becton Dickinson). Test compounds were examined a concentration of 10 μM. […] Consequently, to assess the effect of test compounds on various analytes, cell viability was taken into consideration with the use of the formula: Actual effect of test compound=measured effect−(effect on cell viability×measured effect)

The subject of test [3] is NO synthesis in RAW 264.7 murine macrophages. Nature of the test: LPS-induced NO synthesis in RAW 264.7 murine macrophages (Griess). Type of test: cell-based, mouse. To be noted: 10 μM; relative to vehicle alone; FIG. 6. On the procedure:
as §1, with “Dickinson). Nitrite concentration is a quantitative indicator of NO production and was determined by the Griess Reaction. Briefly, 100 μL of Griess reagent was added to 50 μL of each supernatant in duplicate. The absorbance at 550 nm was measured (Molecular Devices, SpectraMax 250 microplate spectrophotometer, CA, USA), and nitrite concentrations were determined against a standard curve of sodium nitrite. The percentage nitrite inhibition was calculated as: [100−(nitrite concentration of sample/nitrite of vehicle control LPS cells)×100]. Results” for “Dickinson).”
A general note: Nitrite, measured by Griess reagent, commonly stands in for NO production.

A short description of test [4]: Free radical scavenging with DPPH. To be noted: for EC50: DPPH, read-out: Free radical scavenging ability EC50. On the procedure:
The antioxidant (free radical trapping) activity of test compounds was assessed using the stable free radical compound 2,2-diphenyl-1-picrylhydrazyl (DPPH). A stock solution of DPPH was prepared at a concentration of […] in ethanol and mixed for 10 minutes prior to use. Test compounds at a concentration of 100 μM were reacted with DPPH for, 20 minutes, alter which time the absorbance at 517 nm was determined. Initial screening of was done at 100 μM. The change in absorbance at 517 nm was compared to a reagent blank (DPPH with ethanol alone). […] The IC50 values were estimated as the concentration of test compound that caused a 0.6 change in absorbance (with 1.2 absorbance units representing total scavenging of the DPPH radical).
The antioxidant (free radical trapping) activity of test compounds was assessed using the stable free radical compound 2,2-diphenyl-1-picrylhydrazyl (DPPH). A stock solution of DPPH was prepared […] in ethanol and mixed for 10 minutes prior to use. Initial screening of test compound at a concentration of 100 μM was reacted with DPPH for 20 minutes, after which time the absorbance at 517 nm was determined. The change in absorbance was compared to a reagent blank (DPPH with ethanol alone). […] The IC50 value was estimated as the concentration of test compound that causes a 0.6 change in absorbance (with 1.2 absorbance units representing total scavenging of the DPPH radical).
(In general: The DPPH test is a chemical assay of radical scavenging.)

Another test relates to cancer cell lines. In words: Anti-cancer activity, cancer cell lines tested as a group (MTT). The test is classed as cell-based. The settings on record: CP70, HPAC and MM200.
The test system of a further test is CP70. Nature of the test: Anti-cancer activity, CP70 ovarian cancer cells (MTT). To be noted: 120 h, 5 days. Type of test: cell-based.
The subject of the next test is MM200. Nature of the test: Anti-cancer activity, MM200 melanoma cells (MTT). The test is classed as cell-based. To be noted: 120 h; 5 days, MTT.
In another test the test system is HPAC. Nature of the test: Anti-cancer activity, HPAC pancreatic cancer cells (MTT). The test is classed as cell-based. To be noted: Homo sapiens, 120 h, 5 days.
Test [5] deals with NFκB-promoter activity in TNFa-stimulated THP-1 monocyte/macrophages. In words: NFκB promoter activity in TNFα-stimulated THP-1 cells (beta-lactamase reporter). Type of test: cell-based, human. The settings on record: 30 μM; FIG. 19. On the procedure: The assay utilizes a genetically modified THP-1 cell line and GeneBLAzer® beta-lactamase technology (Invitrogen Corp). The human THP-1 monocyte/macrophages contain a stably-transfected beta-lactamase reporter gene under control of the NFκB response element They respond to stimulation with TNF-a, which leads to activation of the NFκB signaling pathway. Co-incubation of cells with TNF-a and test material allows quantitative determination of the ability of test material to inhibit TNFa-stimulated beta-lactamase production. Inflammatory index is calculated as the ratio of beta-lactamase product to beta-lactamase substrate. In brief, genetically modified THP-1 cells were seeded into wells of a 96-well plate (50×10^3 cells/well) in the presence of RPMI 1640 medium (70 μl). TNFα was added to each well (10 μl) to give a final concentration of 7.5 ng/ml. Dialyzed bovine serum was added (10 μl). Compounds dissolved in DMSO (10 μL) were then added (5 wells for each compound). Each plate contained a no-cell control (4 wells), a no-serum control (4 wells) and two serum controls. Plates were incubated for 5 h at 37° C. to allow for NFκB-stimulated beta-lactamase production. LiveBLAzer™ FRET B/G Substrate (CCF4-AM) substrate was then added to assay. CCF4-AM is a Forster resonance energy transfer (FRET) based substrate for beta-lactamase developed by Invitrogen Corp. Once CCFA-AM enters a cell, it is converted to negatively charged CCF4 by endogenous esterases. Excitation of this substrate at 409 nm leads to efficient FRET between the coumarin and fluorescein moieties, resulting in a green fluorescence detectable at 530 nm. The presence of beta-lactamase leads to cleavage of CCF4 and results in a loss of FRET, resulting in a robust blue fluorescent signal detectable at 460 nm. Thus, activity of beta-lactamase (a marker of NFκB-promoter activity) is measured as a product to substrate ratio (blue/green fluorescence ratio: 460 nm/530 nm). The determination of inflammatory index has a within-plate CV of 2.1% and a between-plate CV of 8.9% This comparative study was conducted according to the assay method set out in the example at Section 2.4 above.

A further test deals with red blood cells (RBC). In words: Peroxyl radical (AAPH)-induced red blood cell lysis. Type of test: cell-based. On the procedure:
Freshly collected heparinised venous blood (10 ml, on ice) was aliquotted into 1.8 ml sterile Eppendorf tubes and centrifuged for 10 minutes at 2600 rpm at 4° C. Plasma and buffy coat layers were removed (approximately […]) and packed red blood cells (RBC) were then washed by the addition of […], ice cold PBS. This washing procedure was repeated twice. Packed RBC were resuspended by the addition of 900 ml of ice-cold, sterile PBS (and termed RBC stock). RBC stocks were stored at 4° C. for a maximum of three days. All working suspensions of RBC were prepared fresh daily by diluting […] of RBC stock into 10 ml of ice-cold, sterile PBS and […] added to each well.
Stocks of AAPH were freshly prepared for individual experiments as follows. AAPH (1.22 gm) was dissolved in 7.5 ml of PBS to yield a 4× stock at 600 mM and […] aliquots (final concentration of 150 mM) were then added to each well to initiate the lysis assay. Stock solutions of test compounds (40 mM in 100% DMSO) were diluted in sterile PBS to yield final concentrations of […] per well. Appropriate controls were included in each experiment. All compound dilutions were adjusted to give final DMSO concentrations in each well of 0.25%. Peroxy-induced RBC lysis assays were performed in 96-flat bottom well microtitre plates with a total volume of […] per well. Turbidity of RBC suspensions were monitored using a Tecan microplate reader at 690 nm (37° C.) with gentle vortexing. Assays were performed in quadruplicate and readings were taken every 5 minutes over 5 hours. RBC lysis curves were constructed by plotting absorbance (mean of 4 readings) against time. Time to half-lysis was calculated by taking the highest absorbance reading (no lysis) and the lowest absorbance reading (maximum lysis). The sum of these two readings divided by two gave the absorbance at half-lysis. Simple regression analysis was used to calculate the time at which half-lysis absorbance occurred.
This comparative study was conducted according to the assay method set out in the example at Section 3.3 above.

The mark [6] stands for this setting: 20 minutes, absorbance 517 nm, Table 4.

T1 sequence (P37231 238-503 limits assumed): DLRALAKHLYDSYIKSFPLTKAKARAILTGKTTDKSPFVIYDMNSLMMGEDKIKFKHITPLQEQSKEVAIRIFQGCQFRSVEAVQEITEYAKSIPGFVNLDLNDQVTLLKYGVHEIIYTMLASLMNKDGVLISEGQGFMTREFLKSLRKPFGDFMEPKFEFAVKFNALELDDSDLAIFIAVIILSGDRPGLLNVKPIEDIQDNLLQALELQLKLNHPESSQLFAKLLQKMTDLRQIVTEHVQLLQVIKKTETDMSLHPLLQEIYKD
T1 sequence (P04386 1-147 partner limits assumed): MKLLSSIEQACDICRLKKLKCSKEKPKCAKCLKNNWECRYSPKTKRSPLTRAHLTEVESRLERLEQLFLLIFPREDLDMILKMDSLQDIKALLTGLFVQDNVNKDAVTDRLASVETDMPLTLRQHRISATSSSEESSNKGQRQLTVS

One may read the EC50 as the concentration needed to bring the measured effect to its halfway point. For `Cc1cccc(N2COc3cc4c(cc3C2)C=C(c2ccc(O)cc2)CO4)c1` [Compound 22, 4-(3-m-Tolyl-2,3,4,8-tetrahydrochromeno[6,7-e][1,3]oxazin-7-yl)phenol], the “PPARγ activation, increase in beta-lactamase activity over media only control” value in test [1] is “PPARγ agonist activity”. Further, in test [2], the “mean change of LPS-induced TNFα synthesis” value was “greatest inhibition”. The “mean change of LPS-induced NO synthesis” value in test [3] is reported as “greatest inhibition”. The EC50 in test [4] (setting [6]) was found to be 21 µM.

Consider `CN1COc2cc3c(cc2C1)C=C(c1ccc(O)cc1)CO3` [Compound 4, 4-(3-methyl-2,3,4,8-tetrahydrochromeno[6,7-e][1,3]oxazin-7-yl)phenol], for which the “mean change of LPS-induced TNFα synthesis” value in test [2] was “greatest inhibition”. In addition, in test [3], the “mean change of LPS-induced NO synthesis” value is on record as “greatest inhibition”. The 50% effective concentration (EC50) in test [4] (setting [6]) was found to be 22.5 µM.

A word on the IC50: it is the concentration needed to halve the response being measured. A higher IC50 goes with lower potency. `COc1ccc(CN2COc3cc4c(cc3C2)C=C(c2ccc(O)cc2)CO4)cc1` [Compound 6, 4-(3-(4-Methoxybenzyl)-2,3,4,8-tetrahydrochromeno[6,7-e][1,3]oxazin-7-yl)phenol]: the “PPARγ activation, increase in beta-lactamase activity over media only control” value in test [1] is reported as “PPARγ agonist activity”. Moreover, the “activity against CP70, HPAC and MM200 cell lines” value in the test on cancer cell lines is recorded as “active”. Further, the values for the IC50 with CP70, in the test with MM200 and in the test on HPAC were 5.08 ± 1.5 µM, 11.3 ± 0.2 µM and 9.64 ± 3.6 µM, respectively. Further, the “mean change of LPS-induced TNFα synthesis” value in [2] is on record as “greatest inhibition”. The EC50 in test [4] (setting [6]) was found to be 24 µM.

As for `O=c1c(-c2ccc(O)cc2)coc2cc(O)cc(O)c12` [genistein, reference compound], the “NFκB inhibition” value in test [5] is reported as “inhibited NFκB”. Also, the “antioxidant activity, AAPH-induced time to half-lysis of red blood cells” value in the test with red blood cells (RBC) was “delaying the AAPH-induced time to half-lysis”. For the same compound, the “Time taken to reach half-lysis, time” value with red blood cells (RBC) (test compounds at 10 μM, vehicle 40.0, comparative, Table 14) stood at 93.8 min. Besides, in test [4] (100 μM, ΔAbs>0.3 criterion), the “free radical scavenging / antioxidant activity in DPPH screen” value is recorded as “no antioxidant activity”. For the same compound, the EC50 in test [4] (comparative, Table 13) is greater than 100 µM.
